Like-named read-outs stand apart in the source and are kept apart here.
What was measured:
[1] = Bidirectional permeability across ex vivo porcine intestinal segments; format: in vitro ADME, pig; settings: pig; for recovery: pH 7.4, porcine intestinal segments; for Papp A→B / Papp B→A: pH 7.4, all porcine segments (duodenum, jejunum, ileum); for Papp A→B: A to B, read-out: Papp (A to B), range over porcine segments; for Papp B→A: B to A, read-out: Papp (B to A), range over porcine segments
Description: (§1) In accordance with the NC3R framework on the reduction and refinement of animals in research; samples were only obtained from healthy adult pig cadavers being used for the purposes of other research projects. The work was conducted according to United Kingdom Home Office guidelines (Animal Scientific Procedures Act […]) and following local AWERB approval (ref 000057). Regional sections from the duodenum (first 25 cm from the stomach), jejunum (150 cm from the stomach) and ileum (first 50 cm back from the ileocecal valve) were resected from pig cadavers (Supplementary Figure S2). Using tweezers the serosa and muscularis propria (muscle layers) were carefully peeled away leaving the mucosa. Sections were washed in PBS, cut to fit the Transwell® inserts (Corning Life Sciences) and transferred in 6-well plates. All tissue was kept on the ice and used within a 24 h time period, post-collection.
(§2) Transport studies were conducted using standard, widely accepted protocols as previously described ([Volpe, 2008]). Transport markers were prepared in transport buffer (HBSS, 25 mM HEPES, pH 7.4). Dimethyl sulfoxide (DMSO) was used to aid solubilisation of poorly soluble drugs at a maximum final concentration of 0.1% (v/v) used in all transport experiments. TEER was measured before and after each experiment to ensure barrier integrity during the experiments and as a control measure of experimental validity. Inserts were transferred to fresh plates containing transport buffer (apical/basolateral volumes were 0.4/1.2 mL and 0.5/6 mL for Transwell® and Snapwell® inserts, respectively). Donor solutions were added to the relevant compartments and the inserts were then incubated at 37°C with shaking at 150 rpm and sampled at intervals of 30 min or 1 h for 1–2 h. Apparent permeability coefficients (Papp) were calculated according to Eq. 2:
(§3) Where dQ/dt is the flux of the compound being investigated (μM s-1), A is the exposed surface area of the insert/scaffold (cm^2) and C0 is the concentration in the apical compartment at t = 0 (μM).
(§4) Compound recovery following permeability assessment were calculated according the following Eq. 3:
(§5) (3) Recovery (%)=[CR(final)×VR(final))×100/(CD(initial)×VD(initial)]
(§6) Where CD and CR are the donor and receiver compartment concentrations, VD and VR are the donor and receiver compartment volumes at t = 0 (initial) or the end of the experiment (final).
(§7) All HPLC was performed using a Kinetix XB-C18 5 μm, 100 Å pore size, 150 mm × 4.56 mm column (with a guard column) on an Agilent 1100 HPLC system. […] Samples were analyzed using gradient runs with Milli-Q dH2O, 0.5% TFA (eluent A) and acetonitrile, 0.5% TFA (eluent B).

[2] = Bidirectional permeability across Caco-2 monolayers on Transwell inserts; format: in vitro ADME, human; settings: human, Caco-2 on Transwell; for Papp A→B: apical to basolateral; for Papp A→B / Papp B→A: pH 7.4, mean (±SD); for Papp B→A: basolateral to apical
Description: (§8) Caco-2 (used within 20 passages throughout the study) was obtained from the Clinical Pathology Laboratory, Queens Medical Centre, Nottingham and are available from ATCC. They were cultured in DMEM (Gibco) supplemented with 10% (v/v) foetal calf serum (FCS), 2 mM L-Glutamine solution, 1% (v/v) antibiotic/antimycotic solution (Gibco; final concentrations of […] streptomycin sulfate and 25 μgmL^-1 amphotericin B) at 37°C, 5% CO2 in 95% relative humidity (RH). Cells were cultured to around 80% confluence before harvesting cells by passaging with Trypsin/EDTA (Sigma Aldrich). Cell culture media was replaced every 2 days. For the initial evaluation of the scaffold compatibility, Collagen type I and untreated nanofibrous scaffolds were mounted in 24-well Cell Crown^TM inserts (Scaffdex). The mounted inserts were then placed in 12-well culture plates and seeded with 50,000 cells in 200 μL per insert. An additional 1 mL culture media was added to the well of the plate which ensured the insert were adequately surrounded and bathed in culture media. Following 24 h of culture at 37°C, 5% CO2, the PrestoBlue viability assay was carried out according to manufacturer’s instructions. In brief, a working solution of 10% (v/v) was prepared from the stock PrestoBlue solution in HBSS and sterile filtered using a 0.2 μm pore filter. Samples were washed three times with pre-warmed PBS and the working solution of PrestoBlue solution applied to the upper chamber of the inserts. Following a 30 min incubation period at 37°C, 5% CO2 with shaking at 150 rpm, 100 μL aliquots were taken from each sample and dispensed in triplicate into a black 96-well plate. The fluorescence of the samples was determined using a plate reader (Tecan Infinite 200, Tecan, United Kingdom) at 530/590 nm (excitation/emission wavelengths). Subsequent viability assays were conducted on day 3 and day 6 of culture to provide an initial assessment of the benefit of the surface treatments on cell adhesion and proliferation. To evaluate barrier formation, Snapwell® hanging inserts (6-well; Corning Life Sciences) were employed as unlike the CellCrown^TM inserts, the Snapwell® hanging inserts provided discrete apical and basolateral chambers in a 6-well plate formate appropriate for assessing barrier formation. The existing polycarbonate membrane on the securing clip of the Snapwell® insert were removed with a scalpel and the nanofiber scaffold affixed securely to the hanging insert by means of the securing clip (Supplementary Figure S1). Cells were seeded using the same cell density (178,000 cells/cm^2) as had been previously optimized for Caco-2 Transwell® cultures ([Hubatsch et al., 2007]). A cell suspension containing 200,000 cells in 500 μL were seeded onto the upper chamber of the Snapwell® inserts and cultured for 15–21 days at 37°C, 5% CO2 in air prior for TEER evaluation and for permeability tests.
as §2, with “2: […]” for “2:”

[3] = test system: porcine intestinal tissue; settings: uncorrected Papp; ref Westerhout et al. (2014); cited from earlier work
[4] = Bidirectional permeability across Caco-2 cultures on collagen-coated PET nanofibrous scaffolds; format: in vitro ADME, human; settings: human, Caco-2 on nanofiber scaffolds, pH 7.4, mean (±SD)
Description: (§9) Polyethylene terephthalate flakes (food grade; were procured from recycled plastic bottles and processed in-house) were dissolved in a 1:1 solution of dichloromethane and trifluoroacetic acid (overnight with stirring) and the polymer solution transferred into a syringe fitted with a blunt needle (18 gauge spinneret) attached to a syringe pump (Harvard Apparatus, United Kingdom). Electrospinning was conducted at a flow rate of 0.5 mL/hr at 14 kV voltage (Glassman High Voltage Inc., Series EL, Glassman Europe Ltd., United Kingdom; Supplementary Figure S1). The fibers were collected on a grounded static plate or rotating collector (a tip-collector distance of 15 cm). The scaffolds were removed with the aid of 70% (v/v) IMS and allowed to air dry at room temperature (RT).
(§10) The nanofibrous scaffolds were surface coated with type I bovine collagen (Sigma-Aldrich). For type I bovine collagen coating, 150 μL of collagen solution (stock and working concentrations 3.1 mg/mL and 31 μg/mL, respectively) was gently pipetted ensuring adequate coverage of the entire scaffold. Samples were incubated at RT under aseptic conditions for 1–2 h. Any remaining collagen solution was aspirated and the scaffolds washed with PBS before cell seeding. Control scaffolds included PET nanofibers with no surface treatment.
as §8, with “S1).” for “S1). Cells were seeded using the same cell density (178,000 cells/cm^2) as had been previously optimized for Caco-2 Transwell® cultures ([Hubatsch et al., 2007]). A cell suspension containing 200,000 cells in 500 μL were seeded onto the upper chamber of the Snapwell® inserts and cultured for 15–21 days at 37°C, 5% CO2 in air prior for TEER evaluation and for permeability tests.”

[5] = test system: Caco-2 cultures on nanofibrous scaffolds; experiment: as above; format: in vitro ADME, human
Description: as §9, §10
as §8, with “S1).” for “S1). Cells were seeded using the same cell density (178,000 cells/cm^2) as had been previously optimized for Caco-2 Transwell® cultures ([Hubatsch et al., 2007]). A cell suspension containing 200,000 cells in 500 μL were seeded onto the upper chamber of the Snapwell® inserts and cultured for 15–21 days at 37°C, 5% CO2 in air prior for TEER evaluation and for permeability tests.”

[6] = test system: porcine intestinal segments; experiment: Bidirectional permeability across ex vivo porcine intestinal segments; format: in vitro ADME, pig
Description: as §1, §2, §3, §4, §5, §6, §7

[7] = test system: human jejunal; settings: ref Sjöberg et al. (2013), Rozehnal et al. (2012), cited from earlier work
[8] = test system: Caco-2 monolayers on Transwell®; experiment: Bidirectional permeability across Caco-2 monolayers on Transwell inserts; format: in vitro ADME, human; settings: Caco-2 on Transwell, pH 7.4, mean (±SD)
Description: as §8
as §2, with “2: […]” for “2:”

[9] = test system: Caco-2 monolayers; parameters: method as in Artursson et al., 1993, 2001; settings: ref Artursson et al., 1993, 2001; cited from earlier work

## CC(C)NCC(O)COc1ccc(CC(N)=O)cc1 (stereo not drawn) [ATN, Atenolol]
[1]; read-out: average recovery
  recovery: 80%
[1]; read-out: recovery (range)
  recovery: 70 to 95%

## CC(C)NCC(O)COc1cccc2ccccc12 (stereo not drawn) [PRN, Propranolol]
[1]; read-out: average recovery
  recovery: 58%
[1]; read-out: recovery (range)
  recovery: 35 to 75%
[1]
  Papp A→B: 7.76 to 9.6 ×10⁻⁶ cm/s
  Papp B→A: 1.85 to 5.5 ×10⁻⁶ cm/s
[2]
  Papp A→B: 30.7 ×10⁻⁶ cm/s
  Papp B→A: 32 ×10⁻⁶ cm/s
[3]
  Papp: 0.42 ×10⁻⁶ cm/s
[4]; apical to basolateral
  Papp A→B: 86.3 ×10⁻⁶ cm/s
[4]; basolateral to apical
  Papp B→A: 75.1 ×10⁻⁶ cm/s
[5]; nanofiber based culture vs Transwell Caco-2
  increase in permeability over Transwell cultures: more than a two-fold increase

## COC(=O)c1ccccc1-c1c2ccc(=N)cc-2oc2cc(N)ccc12 [Rho-123, rhodamine 123]
[6]; porcine tissue segments
  active efflux: not detectable
[1]; read-out: recovery (range)
  recovery: 37 to 54%
[1]
  Papp A→B: 5.6 to 7.6 ×10⁻⁶ cm/s
  Papp B→A: 1.8 to 3.6 ×10⁻⁶ cm/s
[2]; pH 7.4, B to A / A to B
  efflux ratio at 10 µM: 4.6
[2]
  Papp A→B: 0.82 ×10⁻⁶ cm/s
  Papp B→A: 3.8 ×10⁻⁶ cm/s
[5]; 3D nanofiber based cultures
  active efflux: not detectable

## OC[C@@H](O)[C@@H](O)[C@H](O)[C@H](O)CO [mannitol]
[7]; second listed value
  human jejunal Papp: 5.56 ± 2.21 × 10^-6 cm s^-1

## lucifer yellow [LY]
[6]; porcine duodenal section
  Papp (A to B): 4.66 (±1.19) × 10^-6 cm s^-1
  Papp (B to A): 2.01 (±0.85) × 10^-6 cm s^-1
[6]; porcine ileal section
  Papp (A to B): 5.58 (±3.93) × 10^-6 cm s^-1
  Papp (B to A): 3.80 (±3.46) × 10^-6 cm s^-1
[6]; porcine jejunal section
  Papp (A to B): 5.71 (±1.50) × 10^-6 cm s^-1
  Papp (B to A): 4.31 (±2.58) × 10^-6 cm s^-1
[8]; apical to basolateral
  Papp (A to B): 0.30 (±0.13) × 10^-6 cm s^-1
[8]; basolateral to apical
  Papp (B to A): 0.66 (±0.23) × 10^-6 cm s^-1
[5]; Caco-2 on nanofiber scaffolds, apical to basolateral, pH 7.4, mean (±SD)
  Papp (A to B): 7.14 (±0.4.53) × 10^-6 cm s^-1
[5]; Caco-2 on nanofiber scaffolds, basolateral to apical, pH 7.4, mean (±SD)
  Papp (B to A): 8.51 (±6.61) × 10^-6 cm s^-1
[7]; first listed value
  human jejunal Papp: 4.02 ± 2.20 × 10^-6 cm s^-1

## polyethylene glycols
[9]
  fold lower permeability in Caco-2 monolayers compared to human in vivo: ~100 fold

Source: paper PMC6524416, “Nanofibrous Scaffolds Support a 3D in vitro Permeability Model of the Human Intestinal Epithelium” (Frontiers in Pharmacology, 2019)
